Where two headings read alike, the source gives them in different places.
Tests used:
Format in all cases: biochemical
Lck = molecular target: T1, Lck (Homo sapiens, UniProt P06239); assay: Kinase inhibition assay (33P transfer), Lck; details: read-out: Lck-1
T1 construct: Kinases are expressed as either kinase domains or full length constructs; made in house
Method in brief: (§1)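 Kinase domains or full-length kinases, GST- or His-tagged and expressed in E. coli or baculovirus/High Five cells, transferred 33PO4 from ATP onto plate-bound poly(Glu,Tyr) 4:1 or poly(Arg,Ser) 3:1. After incubation, plates were washed with 0.5% phosphoric acid and counted by liquid scintillation.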

Lyn = molecular target: T2, Lyn (Homo sapiens, UniProt P07948); assay: Kinase inhibition assay (33P transfer), Lyn; details: Table 6, Lyn-1 kinase inhibition class
T2 construct: Kinases are expressed as either kinase domains or full length constructs; made in house
T2 sequence (P07948 whole entry, species assumed, the tested form may be a part): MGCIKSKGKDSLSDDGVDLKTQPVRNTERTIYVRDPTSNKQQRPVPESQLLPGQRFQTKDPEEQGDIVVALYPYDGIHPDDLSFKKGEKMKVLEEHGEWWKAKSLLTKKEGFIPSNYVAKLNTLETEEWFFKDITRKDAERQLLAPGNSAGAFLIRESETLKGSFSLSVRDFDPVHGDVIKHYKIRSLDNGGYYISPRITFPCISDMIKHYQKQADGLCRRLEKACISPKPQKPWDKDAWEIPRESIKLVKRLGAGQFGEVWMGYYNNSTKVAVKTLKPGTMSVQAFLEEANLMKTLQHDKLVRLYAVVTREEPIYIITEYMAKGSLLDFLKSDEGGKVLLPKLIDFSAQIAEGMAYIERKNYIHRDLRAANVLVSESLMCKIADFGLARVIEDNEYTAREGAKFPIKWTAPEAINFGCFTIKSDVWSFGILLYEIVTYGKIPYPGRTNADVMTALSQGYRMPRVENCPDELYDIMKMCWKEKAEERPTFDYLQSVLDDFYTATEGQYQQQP
Method in brief: (§2)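 Steps: coat wells with poly(Glu,Tyr) 4:1 or poly(Arg,Ser) 3:1; add purified kinase, [33P]ATP and inhibitor; incubate; wash with 0.5% phosphoric acid; add liquid scintillant; count. IC50 corresponds to half-maximal reduction of bound 33P.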

Src = molecular target: T3, Src (Homo sapiens, UniProt P12931); assay: Kinase inhibition assay (33P transfer), Src; details: Table 6, Src-1 kinase inhibition class
T3 construct: Kinases are expressed as either kinase domains or full length constructs; made in house
T3 sequence (P12931 whole entry, species assumed, the tested form may be a part): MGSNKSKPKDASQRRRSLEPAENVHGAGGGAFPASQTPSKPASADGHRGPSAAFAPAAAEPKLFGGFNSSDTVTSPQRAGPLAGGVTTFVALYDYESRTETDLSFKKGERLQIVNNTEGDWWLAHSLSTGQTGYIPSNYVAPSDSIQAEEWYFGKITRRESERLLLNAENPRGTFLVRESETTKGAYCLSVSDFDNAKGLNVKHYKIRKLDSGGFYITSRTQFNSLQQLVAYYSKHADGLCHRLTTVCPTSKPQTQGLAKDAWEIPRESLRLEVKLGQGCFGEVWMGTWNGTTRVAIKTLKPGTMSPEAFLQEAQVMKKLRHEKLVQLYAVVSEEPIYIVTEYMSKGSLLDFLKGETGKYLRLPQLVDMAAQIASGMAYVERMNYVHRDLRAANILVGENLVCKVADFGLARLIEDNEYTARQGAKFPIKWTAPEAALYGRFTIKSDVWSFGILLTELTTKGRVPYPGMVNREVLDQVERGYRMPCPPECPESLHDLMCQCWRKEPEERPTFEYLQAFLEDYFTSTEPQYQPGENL
Method in brief: as §2

Fyn = molecular target: T4, Fyn (Homo sapiens, UniProt P06241); assay: Kinase inhibition assay (33P transfer), Fyn; details: read-out: Fyn-1
T4 construct: Kinases are expressed as either kinase domains or full length constructs; made in house
Method in brief: as §2

Zap-70 = molecular target: T5, Zap-70 (Homo sapiens, UniProt P43403); assay: Kinase inhibition assay (33P transfer), Zap-70; details: read-out: Zap-1
T5 construct: Kinases are expressed as either kinase domains or full length constructs; made in house
T5 sequence (P43403 1-619): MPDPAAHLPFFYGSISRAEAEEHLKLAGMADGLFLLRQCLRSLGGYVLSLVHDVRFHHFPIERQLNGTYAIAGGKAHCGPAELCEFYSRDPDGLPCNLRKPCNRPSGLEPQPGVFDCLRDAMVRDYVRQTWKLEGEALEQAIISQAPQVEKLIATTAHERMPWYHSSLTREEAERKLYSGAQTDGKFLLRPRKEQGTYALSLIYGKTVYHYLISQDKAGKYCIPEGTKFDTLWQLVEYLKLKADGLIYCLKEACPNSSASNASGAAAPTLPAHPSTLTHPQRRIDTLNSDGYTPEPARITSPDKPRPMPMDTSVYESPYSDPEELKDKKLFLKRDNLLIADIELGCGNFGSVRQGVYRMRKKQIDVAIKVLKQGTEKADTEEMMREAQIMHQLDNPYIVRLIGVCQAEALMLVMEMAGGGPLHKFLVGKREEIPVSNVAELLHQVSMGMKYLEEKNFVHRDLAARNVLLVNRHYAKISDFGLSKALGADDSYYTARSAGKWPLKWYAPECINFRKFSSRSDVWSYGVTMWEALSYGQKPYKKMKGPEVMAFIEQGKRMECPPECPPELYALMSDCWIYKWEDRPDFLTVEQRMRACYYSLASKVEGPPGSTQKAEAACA
Method in brief: as §1

Itk = molecular target: T6, Itk (Homo sapiens, UniProt Q08881); assay: Kinase inhibition assay (33P transfer), Itk; details: read-out: Itk-1
T6 construct: Kinases are expressed as either kinase domains or full length constructs; made in house
T6 sequence (Q08881 1-620): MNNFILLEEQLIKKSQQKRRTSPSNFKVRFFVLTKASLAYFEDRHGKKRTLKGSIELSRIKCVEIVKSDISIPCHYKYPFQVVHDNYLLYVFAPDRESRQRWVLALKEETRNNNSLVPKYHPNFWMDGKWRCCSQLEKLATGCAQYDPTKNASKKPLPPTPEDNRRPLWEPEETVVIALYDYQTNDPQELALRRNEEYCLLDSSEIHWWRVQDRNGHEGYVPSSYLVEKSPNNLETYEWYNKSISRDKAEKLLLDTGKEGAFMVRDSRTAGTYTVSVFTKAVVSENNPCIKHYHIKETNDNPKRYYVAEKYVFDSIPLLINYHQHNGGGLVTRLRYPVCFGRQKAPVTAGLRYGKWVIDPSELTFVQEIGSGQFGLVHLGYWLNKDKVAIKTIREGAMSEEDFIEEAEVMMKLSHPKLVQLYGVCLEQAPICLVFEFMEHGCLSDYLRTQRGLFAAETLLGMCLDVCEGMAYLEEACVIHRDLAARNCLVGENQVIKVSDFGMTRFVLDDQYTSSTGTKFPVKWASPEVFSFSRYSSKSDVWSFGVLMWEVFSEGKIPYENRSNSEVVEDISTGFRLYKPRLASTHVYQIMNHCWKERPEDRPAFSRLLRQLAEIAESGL
Method in brief: as §2

EGFR = molecular target: T7, EGFR (Homo sapiens, UniProt P00533); assay: Kinase inhibition assay (33P transfer), EGFR; details: Table 2, kinase inhibition class; read-out: EGFR-1
T7 construct: Kinases are expressed as either kinase domains or full length constructs; made in house
Method in brief: as §2

ErbB2 = molecular target: T8, ErbB2 (Homo sapiens, UniProt P04626); assay: Kinase inhibition assay (33P transfer), ErbB2; details: read-out: ErbB2-2
T8 construct: Kinases are expressed as either kinase domains or full length constructs; made in house
T8 sequence (P04626 23-1255, species assumed): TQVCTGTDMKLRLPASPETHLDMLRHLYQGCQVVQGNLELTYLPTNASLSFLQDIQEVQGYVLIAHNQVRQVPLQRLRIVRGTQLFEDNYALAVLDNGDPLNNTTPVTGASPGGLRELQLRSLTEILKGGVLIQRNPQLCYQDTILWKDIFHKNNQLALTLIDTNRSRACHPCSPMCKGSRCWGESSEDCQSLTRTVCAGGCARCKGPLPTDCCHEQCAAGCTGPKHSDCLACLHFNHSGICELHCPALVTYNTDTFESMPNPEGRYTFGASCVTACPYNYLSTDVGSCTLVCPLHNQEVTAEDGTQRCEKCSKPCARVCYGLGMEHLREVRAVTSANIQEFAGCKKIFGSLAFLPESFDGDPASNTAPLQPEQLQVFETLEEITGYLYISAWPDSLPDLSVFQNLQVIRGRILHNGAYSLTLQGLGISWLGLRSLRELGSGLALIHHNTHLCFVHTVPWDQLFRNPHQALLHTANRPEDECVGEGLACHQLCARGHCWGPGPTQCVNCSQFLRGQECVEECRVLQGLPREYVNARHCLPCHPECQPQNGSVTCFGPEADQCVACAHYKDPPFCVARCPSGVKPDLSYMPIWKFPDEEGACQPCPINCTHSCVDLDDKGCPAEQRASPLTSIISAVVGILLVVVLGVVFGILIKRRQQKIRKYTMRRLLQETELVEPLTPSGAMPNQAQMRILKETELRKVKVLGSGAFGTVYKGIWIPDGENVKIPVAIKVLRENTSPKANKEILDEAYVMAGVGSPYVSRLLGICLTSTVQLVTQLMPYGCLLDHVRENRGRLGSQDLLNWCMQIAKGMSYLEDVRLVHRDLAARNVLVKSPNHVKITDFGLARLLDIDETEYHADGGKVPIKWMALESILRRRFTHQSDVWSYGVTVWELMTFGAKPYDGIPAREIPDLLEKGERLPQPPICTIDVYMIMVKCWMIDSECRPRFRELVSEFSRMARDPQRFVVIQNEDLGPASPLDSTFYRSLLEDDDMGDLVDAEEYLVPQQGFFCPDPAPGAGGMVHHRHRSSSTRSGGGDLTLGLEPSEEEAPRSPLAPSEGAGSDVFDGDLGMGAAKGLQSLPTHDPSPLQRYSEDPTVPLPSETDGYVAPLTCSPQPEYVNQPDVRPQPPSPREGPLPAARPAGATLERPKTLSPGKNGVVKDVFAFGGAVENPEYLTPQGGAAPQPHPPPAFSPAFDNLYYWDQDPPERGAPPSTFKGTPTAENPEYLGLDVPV
Method in brief: as §2

Kdr = molecular target: T9, Kdr (Homo sapiens, UniProt P35968); assay: Kinase inhibition assay (33P transfer), Kdr; details: read-out: KDR-1
T9 construct: Kinases are expressed as either kinase domains or full length constructs; made in house
T9 sequence (P35968 20-1356, species assumed): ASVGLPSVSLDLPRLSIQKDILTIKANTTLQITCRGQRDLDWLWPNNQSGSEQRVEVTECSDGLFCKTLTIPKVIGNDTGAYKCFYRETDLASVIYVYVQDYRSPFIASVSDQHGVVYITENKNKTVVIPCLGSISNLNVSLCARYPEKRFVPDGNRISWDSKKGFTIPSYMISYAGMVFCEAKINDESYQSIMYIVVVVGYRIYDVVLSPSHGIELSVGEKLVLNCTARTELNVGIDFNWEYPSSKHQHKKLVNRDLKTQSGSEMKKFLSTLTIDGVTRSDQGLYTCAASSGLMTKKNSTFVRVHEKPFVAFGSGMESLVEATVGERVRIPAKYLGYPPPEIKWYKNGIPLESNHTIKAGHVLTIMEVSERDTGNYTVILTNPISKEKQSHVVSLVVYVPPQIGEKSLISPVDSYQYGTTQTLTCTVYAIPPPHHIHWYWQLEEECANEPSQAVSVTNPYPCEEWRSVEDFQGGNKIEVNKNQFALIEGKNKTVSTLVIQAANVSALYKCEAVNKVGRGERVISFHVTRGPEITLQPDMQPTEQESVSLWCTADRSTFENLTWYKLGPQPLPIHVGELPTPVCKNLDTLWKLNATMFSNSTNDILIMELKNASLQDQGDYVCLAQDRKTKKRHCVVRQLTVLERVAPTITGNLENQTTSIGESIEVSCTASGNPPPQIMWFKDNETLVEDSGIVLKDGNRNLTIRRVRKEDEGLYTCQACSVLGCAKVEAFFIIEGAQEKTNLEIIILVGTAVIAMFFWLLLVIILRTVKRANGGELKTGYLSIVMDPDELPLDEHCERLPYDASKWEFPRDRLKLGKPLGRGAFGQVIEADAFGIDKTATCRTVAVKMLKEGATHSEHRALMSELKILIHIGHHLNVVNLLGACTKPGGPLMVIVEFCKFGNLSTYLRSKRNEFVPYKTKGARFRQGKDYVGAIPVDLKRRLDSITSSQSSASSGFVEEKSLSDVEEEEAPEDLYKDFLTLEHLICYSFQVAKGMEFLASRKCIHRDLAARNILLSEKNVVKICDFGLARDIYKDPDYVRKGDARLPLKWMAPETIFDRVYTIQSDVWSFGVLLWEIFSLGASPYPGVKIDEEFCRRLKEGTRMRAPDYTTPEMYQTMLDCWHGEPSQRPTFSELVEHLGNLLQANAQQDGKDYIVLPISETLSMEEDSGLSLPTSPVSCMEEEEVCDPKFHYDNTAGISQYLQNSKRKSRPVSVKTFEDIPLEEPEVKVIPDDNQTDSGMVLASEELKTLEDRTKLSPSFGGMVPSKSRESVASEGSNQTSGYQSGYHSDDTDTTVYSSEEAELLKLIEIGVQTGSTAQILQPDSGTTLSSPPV
Method in brief: as §1

Flt-1 = molecular target: T10, Flt-1 (Homo sapiens, UniProt P17948); assay: Kinase inhibition assay (33P transfer), Flt-1
T10 construct: Kinases are expressed as either kinase domains or full length constructs; made in house
Method in brief: as §2

c-Met = molecular target: T11, c-Met (Homo sapiens, UniProt P08581); assay: Kinase inhibition assay (33P transfer), c-Met; details: Table 2, kinase inhibition class; read-out: Met-1
T11 construct: Kinases are expressed as either kinase domains or full length constructs; made in house
Method in brief: as §2

AKT = molecular target: T12, AKT (Homo sapiens, UniProt Q9Y243); assay: Kinase inhibition assay (33P transfer), AKT; details: Table 2, kinase inhibition class; read-out: AKT3-1
T12 construct: Kinases are expressed as either kinase domains or full length constructs; made in house
Method in brief: as §1

IGFR-1 = molecular target: T13, IGFR-1 (Homo sapiens, UniProt P08069); assay: Kinase inhibition assay, IGFR-1 (Table 2); details: Table 2, kinase inhibition class
T13 construct: Kinases are expressed as either kinase domains or full length constructs; made in house

PDGFRB [1] = molecular target: T14, PDGFRB (Homo sapiens, UniProt P09619); assay: Kinase inhibition assay (33P transfer), PDGFRB; details: read-out: PDGFRB-1
T14 construct: Kinases are expressed as either kinase domains or full length constructs; made in house

Hck-1 = molecular target: T15, Hck-1 (Homo sapiens, UniProt P08631); assay: Kinase inhibition assay (33P transfer), Hck; details: Table 6, Hck-1 kinase inhibition class
T15 construct: Kinases are expressed as either kinase domains or full length constructs; made in house
T15 sequence (P08631 whole entry, the tested form may be a part): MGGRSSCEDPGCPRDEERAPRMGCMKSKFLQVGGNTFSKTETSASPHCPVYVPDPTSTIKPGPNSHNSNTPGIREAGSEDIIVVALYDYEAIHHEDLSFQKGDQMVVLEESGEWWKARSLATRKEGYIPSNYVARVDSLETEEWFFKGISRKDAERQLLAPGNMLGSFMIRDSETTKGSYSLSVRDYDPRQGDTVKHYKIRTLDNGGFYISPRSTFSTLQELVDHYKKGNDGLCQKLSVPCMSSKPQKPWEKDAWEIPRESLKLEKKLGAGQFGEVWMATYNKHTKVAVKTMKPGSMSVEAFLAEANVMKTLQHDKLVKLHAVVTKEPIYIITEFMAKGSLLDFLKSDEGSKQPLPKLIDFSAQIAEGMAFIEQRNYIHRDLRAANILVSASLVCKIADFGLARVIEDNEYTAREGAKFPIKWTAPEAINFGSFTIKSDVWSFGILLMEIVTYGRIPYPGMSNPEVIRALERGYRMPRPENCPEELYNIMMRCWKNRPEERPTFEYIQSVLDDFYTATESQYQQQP

ErbB4 = molecular target: T16, ErbB4 (Homo sapiens, UniProt Q15303); assay: Kinase inhibition assay (33P transfer), ErbB4; details: read-out: ErbB4-1
T16 construct: Kinases are expressed as either kinase domains or full length constructs; made in house

Ret-1 = molecular target: T17, Ret-1 (Homo sapiens, UniProt P07949); assay: Kinase inhibition assay (33P transfer), Ret; details: Table 6, Ret-1 kinase inhibition class
T17 construct: Kinases are expressed as either kinase domains or full length constructs; made in house

FGFR1 = molecular target: T18, FGFR1 (Homo sapiens, UniProt P11362); assay: Kinase inhibition assay (33P transfer), FGFR1; details: read-out: FGFR1-1
T18 construct: Kinases are expressed as either kinase domains or full length constructs; made in house
T18 sequence (P11362 22-822, species assumed): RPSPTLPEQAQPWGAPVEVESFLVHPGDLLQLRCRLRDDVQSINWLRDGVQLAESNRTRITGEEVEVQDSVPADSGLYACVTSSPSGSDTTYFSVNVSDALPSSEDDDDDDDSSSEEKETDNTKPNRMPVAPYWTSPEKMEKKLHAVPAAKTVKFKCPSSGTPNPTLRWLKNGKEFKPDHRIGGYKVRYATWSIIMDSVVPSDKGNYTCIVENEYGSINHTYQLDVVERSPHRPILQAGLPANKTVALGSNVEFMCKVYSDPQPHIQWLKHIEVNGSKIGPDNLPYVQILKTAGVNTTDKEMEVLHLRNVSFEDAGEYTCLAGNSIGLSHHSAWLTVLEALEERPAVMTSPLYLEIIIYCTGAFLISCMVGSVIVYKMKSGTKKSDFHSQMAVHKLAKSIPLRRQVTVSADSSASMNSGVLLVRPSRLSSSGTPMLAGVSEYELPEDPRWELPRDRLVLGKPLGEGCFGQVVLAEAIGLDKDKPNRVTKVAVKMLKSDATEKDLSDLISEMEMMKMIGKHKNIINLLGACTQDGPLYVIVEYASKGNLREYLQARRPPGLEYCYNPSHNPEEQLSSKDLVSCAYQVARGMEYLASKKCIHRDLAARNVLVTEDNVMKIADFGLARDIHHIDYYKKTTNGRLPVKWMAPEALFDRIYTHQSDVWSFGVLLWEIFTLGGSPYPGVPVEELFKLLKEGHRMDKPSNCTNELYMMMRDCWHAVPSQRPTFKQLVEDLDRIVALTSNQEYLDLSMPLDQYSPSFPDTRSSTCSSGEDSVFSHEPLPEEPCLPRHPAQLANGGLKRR

PDGFRB [2] = molecular target: T14, PDGFRB; assay: Kinase inhibition assay (33P transfer), PDGFRB; details: read-out: PDGFRB-1; remark: listed apart in the source

IC50 (Lck) [µM]	IC50 (Lyn) [µM]	IC50 (Src) [µM]	IC50 (Fyn) [µM]	IC50 (Zap-70) [µM]	IC50 (Itk) [µM]	IC50 (EGFR) [µM]	IC50 (ErbB2) [µM]	IC50 (Kdr) [µM]	IC50 (Flt-1) [µM]	IC50 (c-Met) [µM]	IC50 (AKT) [µM]	IC50 (IGFR-1) [µM]	IC50 (PDGFRB [1]) [µM]	IC50 (Hck-1) [µM]	IC50 (ErbB4) [µM]	IC50 (Ret-1) [µM]	IC50 (FGFR1) [µM]	IC50 (PDGFRB [2]) [µM]	SMILES
< 0.758	0.758 to 4.55	< 0.758	< 0.758	> 8.53	> 8.53	> 8.53	4.55 to 6.63	< 0.758	< 0.758	> 8.53	> 8.53	> 8.53	< 0.758	0.758 to 4.55	6.63 to 8.53	< 0.758	< 0.758	–	COc1cc(Nc2ncnc(-n3c(NC(CCO)c4ccccc4)nc4ccccc43)n2)cc(OC)c1OC (centres unmarked) [Compound 591]
< 0.687	< 0.687	< 0.687	< 0.687	> 7.72	4.12 to 6.01	< 0.687	< 0.687	0.687 to 4.12	> 7.72	> 7.72	> 7.72	0.687 to 4.12	< 0.687	4.12 to 6.01	< 0.687	< 0.687	0.687 to 4.12	–	COc1cc(Nc2ncnc(Nc3ccc4c(cnn4Cc4ccccc4)c3)n2)cc(OC)c1OCCN1CCOCC1 [Compound 559]
6.23 to 9.08	> 11.7	> 11.7	> 11.7	> 11.7	> 11.7	< 1.04	1.04 to 6.23	6.23 to 9.08	> 11.7	9.08 to 11.7	> 11.7	> 11.7	–	–	> 11.7	6.23 to 9.08	1.04 to 6.23	> 11.7	Cc1cccc(Nc2ncnc(N3CCCc4ccc(C(F)(F)F)cc43)n2)c1 [Compound 582]
< 0.802	< 0.802	0.802 to 4.81	0.802 to 4.81	> 9.03	> 9.03	> 9.03	4.81 to 7.02	0.802 to 4.81	> 9.03	> 9.03	> 9.03	> 9.03	0.802 to 4.81	> 9.03	0.802 to 4.81	0.802 to 4.81	> 9.03	–	CCN(CC)CCOc1cc(Nc2ncnc(Nc3cc(OC)c(OC)c(OC)c3)n2)ccc1OC [Compound 600]
4.48 to 6.53	4.48 to 6.53	> 8.4	> 8.4	> 8.4	> 8.4	> 8.4	6.53 to 8.4	< 0.746	4.48 to 6.53	> 8.4	> 8.4	6.53 to 8.4	0.746 to 4.48	> 8.4	> 8.4	0.746 to 4.48	0.746 to 4.48	–	COc1cc(Nc2ncnc(-n3c(NCc4ccc(Cl)cc4F)nc4ccccc43)n2)cc(OC)c1OC [Compound 606]
0.782 to 4.69	0.782 to 4.69	0.782 to 4.69	0.782 to 4.69	> 8.8	> 8.8	0.782 to 4.69	0.782 to 4.69	< 0.782	0.782 to 4.69	> 8.8	> 8.8	> 8.8	< 0.782	> 8.8	4.69 to 6.84	< 0.782	< 0.782	–	CCC(Nc1nc2ccccc2n1-c1ncnc(Nc2cc(OC)c(OC)c(OC)c2)n1)c1ccccc1 (centres unmarked) [Compound 592]
